The values that follow come from PMC6272448, “Synthesis, ^18F-Radiolabelling and Biological Characterization of Novel Fluoroalkylated Triazine Derivatives for in Vivo Imaging of Phosphodiesterase 2A in Brain via Positron Emission Tomography” (Molecules, 2015).

Structures are written as SMILES. Read-outs that look alike come from different tables or passages of the source.

In general, IC50 refers to the concentration needed to halve the response being measured.

In one data set the test system is hPDE2A. The conditions noted are these: cited from earlier work.
The next data set has as its target human recombinant PDE2A (Homo sapiens, UniProt O00408). The data set can be described thus: enzyme assay, inhibitory potency for human recombinant PDE2A. The conditions noted are these: for Selectivity Ratio PDE10A/PDE2A: IC50 hPDE10A / IC50 hPDE2A; for IC50: human recombinant PDE2A, enzyme assay (BioCrea), read-out: IC50 hPDE2A. The class given is biochemical.
The next data set concerns the target human recombinant PDE10A (Homo sapiens, UniProt Q9Y233). Briefly: enzyme assay, inhibitory potency for human recombinant PDE10A. The conditions noted are these: enzyme assay (BioCrea), read-out: IC50 hPDE10A. The format is biochemical.
The test system of another data set is hPDE10A. Set-up: method as in PMID 24189054, PMID 23651455. Conditions: cited from earlier work.
On the set-up of data set [1]: method as in PMID 24189054, PMID 23651455. The conditions noted are these: monkeys, striatum; cited from earlier work.
Details of data set [2]: method as in PMID 24189054. The conditions noted are these: rats, cited from earlier work.

Chain of human recombinant PDE10A (Q9Y233 whole entry): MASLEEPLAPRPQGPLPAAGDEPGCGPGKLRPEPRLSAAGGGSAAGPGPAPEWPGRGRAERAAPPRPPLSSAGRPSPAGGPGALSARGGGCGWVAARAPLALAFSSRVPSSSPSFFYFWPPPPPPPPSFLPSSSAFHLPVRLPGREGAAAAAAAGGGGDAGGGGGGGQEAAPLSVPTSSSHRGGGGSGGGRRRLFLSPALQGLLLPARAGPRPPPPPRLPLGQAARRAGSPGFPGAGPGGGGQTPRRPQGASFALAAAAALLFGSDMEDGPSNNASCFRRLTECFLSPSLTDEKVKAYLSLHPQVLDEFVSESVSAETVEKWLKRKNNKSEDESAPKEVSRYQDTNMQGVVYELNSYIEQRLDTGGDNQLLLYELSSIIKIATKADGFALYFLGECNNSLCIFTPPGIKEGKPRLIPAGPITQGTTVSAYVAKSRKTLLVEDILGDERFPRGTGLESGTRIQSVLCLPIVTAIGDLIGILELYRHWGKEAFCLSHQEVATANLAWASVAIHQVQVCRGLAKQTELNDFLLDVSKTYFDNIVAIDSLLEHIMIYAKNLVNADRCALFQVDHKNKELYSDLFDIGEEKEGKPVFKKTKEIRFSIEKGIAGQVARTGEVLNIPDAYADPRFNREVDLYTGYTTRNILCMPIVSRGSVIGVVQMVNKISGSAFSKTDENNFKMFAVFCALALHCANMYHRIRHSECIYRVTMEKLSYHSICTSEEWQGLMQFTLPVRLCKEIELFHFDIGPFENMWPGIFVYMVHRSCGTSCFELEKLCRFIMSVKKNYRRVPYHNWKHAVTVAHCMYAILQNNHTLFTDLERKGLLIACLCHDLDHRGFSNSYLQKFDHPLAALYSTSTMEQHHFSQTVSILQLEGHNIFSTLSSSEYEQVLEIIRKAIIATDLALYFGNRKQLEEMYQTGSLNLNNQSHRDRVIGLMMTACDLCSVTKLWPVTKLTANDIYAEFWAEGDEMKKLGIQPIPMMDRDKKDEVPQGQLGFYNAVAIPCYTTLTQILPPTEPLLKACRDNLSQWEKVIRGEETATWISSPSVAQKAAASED
Chain of human recombinant PDE2A (O00408 whole entry): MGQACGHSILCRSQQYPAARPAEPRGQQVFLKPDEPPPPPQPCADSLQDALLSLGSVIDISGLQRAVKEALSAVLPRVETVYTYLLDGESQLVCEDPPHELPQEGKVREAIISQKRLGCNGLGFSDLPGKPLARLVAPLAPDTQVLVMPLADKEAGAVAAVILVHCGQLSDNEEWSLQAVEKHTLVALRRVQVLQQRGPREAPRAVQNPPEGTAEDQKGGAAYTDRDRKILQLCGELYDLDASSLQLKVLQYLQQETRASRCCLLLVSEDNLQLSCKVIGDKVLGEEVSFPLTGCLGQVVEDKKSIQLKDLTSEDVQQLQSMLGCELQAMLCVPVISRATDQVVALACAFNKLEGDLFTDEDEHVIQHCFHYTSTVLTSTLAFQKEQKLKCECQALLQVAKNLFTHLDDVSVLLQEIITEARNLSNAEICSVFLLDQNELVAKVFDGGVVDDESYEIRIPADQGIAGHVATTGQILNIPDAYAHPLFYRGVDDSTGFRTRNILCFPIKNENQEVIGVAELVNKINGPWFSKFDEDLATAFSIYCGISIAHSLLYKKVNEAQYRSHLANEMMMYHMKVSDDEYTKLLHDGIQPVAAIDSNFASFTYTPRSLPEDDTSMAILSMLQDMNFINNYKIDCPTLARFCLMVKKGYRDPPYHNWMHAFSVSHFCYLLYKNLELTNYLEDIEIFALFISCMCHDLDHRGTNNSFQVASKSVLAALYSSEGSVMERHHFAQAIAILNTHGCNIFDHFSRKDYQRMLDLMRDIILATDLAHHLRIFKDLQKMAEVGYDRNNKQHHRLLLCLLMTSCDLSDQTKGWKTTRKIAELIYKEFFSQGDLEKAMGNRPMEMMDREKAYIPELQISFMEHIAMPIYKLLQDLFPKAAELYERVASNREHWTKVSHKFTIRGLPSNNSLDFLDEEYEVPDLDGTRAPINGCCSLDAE
Description for human recombinant PDE10A: (§1) The IC50 values obtained by this assay represent relative measures of the respective target affinity of the compounds.
Description for human recombinant PDE2A: as §1

For the molecule `CCCCCCC(C(C)O)n1cnc2c(N)ncnc21` (stereo not drawn) [EHNA, erythro-9-(2-hydroxy-3-nonyl)-adenine], in the data set with hPDE2A (Figure 1), the concentration for half-maximal inhibition (IC50) is approximately 1000 nM.
As for `COc1ccc2nnc3c(C)nc(-c4cc(OCCCF)ccc4F)n3c2n1` [TA3], the “Selectivity Ratio PDE10A/PDE2A” value on human recombinant PDE2A came out at 27.9. For the same molecule, the 50% inhibitory concentration (IC50) at human recombinant PDE2A worked out at 11.4 nM; on human recombinant PDE10A it was 318 nM.
As to `COc1ccc2nnc3c(C)nc(-c4cc(OCCF)ccc4F)n3c2n1` [TA2, 9-(2-Fluoro-5-(2-fluoroethoxy)phenyl)-2-methoxy-7-methylimidazo[5,1-c]pyrido[2,3-e] [1,2,4]triazine], on human recombinant PDE2A, the “Selectivity Ratio PDE10A/PDE2A” value is on record as 7.4 and the half-maximal inhibitory concentration (IC50) was found to be 10.4 nM. In addition, at human recombinant PDE10A, the 50% inhibitory concentration (IC50) amounted to 77 nM.
The matching figures for `COc1ccc2nnc3c(C)nc(-c4cc(OCCCCF)ccc4F)n3c2n1` [TA4]: 125.1, 7.3 nM and 913 nM.
Turning to `Cc1nc(-c2cnn(C)c2-c2ccc(C(F)(F)F)cc2)c2c(N3CC([18F])C3)ncnn12` [[^18F]PF-05270430], the IC50 is 3000 nM with hPDE10A and 0.5 nM in the data set with hPDE2A (Pfizer PET ligand). In addition, the “uptake in PET studies” value in data set [1] is “rapid and high uptake”.
Consider `Cc1nc2ccc(CN3CCOCC3)cc2n2c(-c3c([18F])cccc3Cl)nnc12` [[^18F]B-23], for which the entries for the “radiometabolites detected in the brain” value in data set [2] (at 2 min p.i.) and in data set [2] (at 10 min p.i.) were 4 % of total activity and 10 % of total activity, respectively. In addition, in data set [2], the “regional accumulation in microPET imaging” value was “highest accumulation of [^18F]B-23 has been observed in the striatum”.
As to `COc1ccc(Cc2nn3c(C(CCCc4ccccc4)C(C)O)nc(C)c3c(=O)[nH]2)cc1OC` (centres unmarked) [BAY 60-7550], the IC50 in the data set with hPDE2A (Figure 1) was approximately 5 nM.
